These results are taken from patent US10829649B2, “Methods and coatings for protecting surfaces from bio-fouling species” (priority 2018, dated 2020).

In brackets after ≈: the same amount, converted by molar mass. Like-named read-outs stand apart in the source and are kept apart here.

The conditions of data set [1]: cited from earlier work.
The conditions of data set [2]: soil and water runoff; cited from earlier work.
For data set [3], the system named is barnacle or mussel larvae. Kind of data set: biocide-impregnated polymer without outer biostatic layer exposed to larvae. As to conditions: weeks or months later; no outer biostatic layer. Format: in vivo. An excerpt: With respect to undesirable effects on the aquatic environment and the benign and beneficial organisms that reside there, the outer biostatic layer is less potentially hazardous both for the chemical and physical reasons mentioned above and shields the water from contact with the more potentially hazardous inner biocidal layer. Also, when an occasional barnacle or mussel larva penetrates the outer layer and touches the inner layer as a juvenile, it is killed quickly and outright on contact. It has been experimentally observed that, when a polymer impregnated with a biocidal biocide such as ivermectin is exposed to barnacle or mussel larvae, and there is no outer biostatic attachment inhibiting polymer layer present, that larvae do attach regardless and grow on the surface of the polymer layer. The organisms with their tiny shells can be seen with a magnifying glass. […] With the present embodiments, the area of the puncture site of the inner layer is microscopic and thus nothing leaks out of the inner layer into the surrounding water.

Take `[O]=[Zn]` [zinc oxide]: the water solubility result in data set [1] (pure water) is on record as “about 16 mg/L”.

`Cc1cccc(C(C)c2cnc[nH]2)c1C` (stereo not shown) [Medetomidine]: in data set [1], the water solubility is 186 µg/mL (≈ 929 µM).

As to spinosad, in data set [2], the “adsorption coefficient KOC” value is given as 34,600.

Take pyrethrins: in data set [1], the water solubility was less than 0.1 µg/mL. The “adsorption coefficient KOC” value in data set [2] is listed as > 100,000.

As to `[Ag+].[O-][n+]1ccccc1[S-]` [silver pyrithione], the water solubility entry in data set [1] (silver pyrithione) is recorded as “about 37 per L”.

As for `CC(C)[C@]12O[C@H]1[C@@H]1O[C@]13[C@]1(O[C@H]1C[C@H]1C4=C(CC[C@@]13C)C(=O)OC4)[C@@H]2O` [triptolide], the water solubility in data set [1] was 0.017 µg/mL (≈ 0.0472 µM).

As to `CC[C@H]1CCC[C@H](O[C@H]2CC[C@H](N(C)C)[C@@H](C)O2)[C@@H](C)C(=O)C2=C[C@@H]3[C@@H](C=C(C)[C@@H]4C[C@@H](O[C@@H]5O[C@@H](C)[C@H](OC)[C@@H](OC)[C@H]5OC)C[C@@H]34)[C@@H]2CC(=O)O1` [spinosad D], the “adsorption coefficient KOC” value in data set [2] is recorded as 34,600.

In the case of zinc pyrithione, the water solubility entry in data set [1] (metal pyrithione salts) is recorded as “about 12 mg per L”.

With ivermectin, the “adult barnacles or mussels on the polymer layer” value in data set [3] is listed as “no adult barnacle or mussel adults are seen”.
